Results published in US20060003023A1, “Microbicidal composition” (priority 2004, published 2006).
Where “and” joins values, the source holds several entries; their conditions need not be identical. Equal entries are not always repeated.

Assays:
[1] = test system: Pseudomonas aeruginosa (ATCC 15442); assay: High resolution MIC combination test (minimum inhibitory concentration), 96-well microtiter plate, mineral salts medium with 2% glucose
Source text: When the sum of Qa/QA and Qb/QB is greater than one, antagonism is indicated. […] The lower the SI, the greater the synergy shown by that particular mixture. The minimum inhibitory concentration (MIC) of a microbicide is the lowest concentration tested under a specific set of conditions that prevents the growth of added microorganisms.
The tests were set up with 96-well microtiter plate using the Biomek™ 2000 Workstation employing a high resolution MIC/MBC combination test method, which provides multiple combinations of two biocides in one test plate. […] Samples (10 μl) taken from each well of the MIC plate were transferred to fresh media in the MBC plates and observed for the presence of surviving (viable) microorganisms over time. […] The synergistic ratio range of the biocide combination is a reflection of the total activity of both inhibition (MIC) and killing MBC).
Each well received 20 μl of a 24-hour pure culture suspension of Pseudomonas aeruginosa (ATCC 15442) at a final density of 106 colony forming units (CFU) per ml. Cell density was adjusted to an optical density of 0.09 at 660 nm using a spectrophotometer.
Tests were set up in duplicate with different starting concentrations of biocides to increase the number of possible combinations displaying antimicrobial activity.
All biocide results are reported on an active ingredient basis in ppm (parts per million).

[2] = test system: Pseudomonas aeruginosa (ATCC 15442); assay: High resolution MBC combination test (minimum biocidal concentration), recovery in Trypticase Soy Broth plus thioglycolate

**Q.** Which A alone ([1]; MIC of BCDMH alone, Day 1, Expt MIC 1) does the source give for `CC1(C)C(=O)N(Br)C(=O)N1Cl` [BCDMH, 3-Bromo-1-chloro-5,5-dimethylhydantoin] here?
**A.** Its A alone is 3.13 ppm total oxidant.

**Q.** What about the A alone ([1]; MIC of BCDMH alone, Day 1, Expt MIC 2) of the same compound?
**A.** Its A alone is 3.13 ppm total oxidant.

**Q.** What about the A alone ([1]; MIC of BCDMH alone, Day 3, Expt MIC 1) of the same compound?
**A.** Its A alone is 6.25 ppm total oxidant.

**Q.** And the A alone ([1]; MIC of BCDMH alone, Day 3, Expt MIC 2)?
**A.** Its A alone is 6.25 ppm total oxidant.

**Q.** And the A alone ([1]; MIC of BCDMH alone, Day 5, Expt MIC 1)?
**A.** The A alone was 6.25 ppm total oxidant.

**Q.** What about the A alone ([1]; MIC of BCDMH alone, Day 5, Expt MIC 2) of the same compound?
**A.** Its A alone is 6.25 ppm total oxidant.

**Q.** And the A alone ([2]; MBC of BCDMH alone, Day 1, Expt MBC 1)?
**A.** The A alone was 6.25 ppm total oxidant.

**Q.** And the A alone ([2]; MBC of BCDMH alone, Day 1, Expt MBC 2)?
**A.** Its A alone is 6.25 ppm total oxidant.

**Q.** What about the A alone ([2]; MBC of BCDMH alone, Day 3, Expt MBC 2) of the same compound?
**A.** Its A alone is 6.25 ppm total oxidant.

**Q.** For `O=c1[nH]sc2ccccc12` [BIT, 1,2-Benzisothiazolin-3-one], which A alone [1] is on record?
**A.** The A alone was 25.00 ppm.

**Q.** What about the A alone ([1]; BIT alone, ppm active ingredient, day 1, MIC 2) of the same compound?
**A.** The A alone was 50.00 ppm.

**Q.** What about the A alone ([1]; BIT alone, ppm active ingredient, day 3, MIC 2) of the same compound?
**A.** Its A alone is 100.00 ppm.

**Q.** And the a/A ([1]; BIT comb./alone, day 1, MIC 1)?
**A.** The a/A was 0.01.

**Q.** And the a/A ([1]; BIT comb./alone, day 1, MIC 2)?
**A.** Its a/A is 0.50 and 0.25.

**Q.** What about the a/A ([1]; BIT comb./alone, day 3, MIC 2) of the same compound?
**A.** Its a/A is 0.50.

**Q.** And the a comb. ([1]; BIT combined with stabilized hypochlorite and bromide, ppm active ingredient, day 1, MIC 2)?
**A.** The a comb. was 25.00 ppm and 12.50 ppm.

**Q.** What about the a comb. ([1]; BIT combined with stabilized hypochlorite and bromide, ppm active ingredient, day 3, MIC 2) of the same compound?
**A.** Its a comb. is 50.00 ppm.

**Q.** And the A alone ([2]; BIT alone, ppm active ingredient, day 1, MBC 2)?
**A.** The A alone was 100.00 ppm.

**Q.** And the a/A ([2]; BIT comb./alone, day 1, MBC 2)?
**A.** Its a/A is 0.50.

**Q.** What about the a comb. ([2]; BIT combined with stabilized hypochlorite and bromide, ppm active ingredient, day 1, MBC 2) of the same compound?
**A.** Its a comb. is 50.00 ppm.

**Q.** How did the A alone ([1]; DBNPA alone, ppm active ingredient, day 1, MIC 1) turn out when `N#CC(Br)(Br)C(N)=O` [DBNPA, 2,2-Dibromo-nitrilo-propionamide] was run?
**A.** Its A alone is 6.25 ppm.

**Q.** And the A alone ([1]; DBNPA alone, ppm active ingredient, day 1, MIC 2)?
**A.** The A alone was 6.25 ppm.

**Q.** What about the A alone ([1]; DBNPA alone, ppm active ingredient, day 5, MIC 1) of the same compound?
**A.** The A alone was 12.50 ppm and 6.25 ppm.

**Q.** What about the A alone ([1]; DBNPA alone, ppm active ingredient, day 5, MIC 2) of the same compound?
**A.** Its A alone is 12.50 ppm.

**Q.** And the a/A ([1]; DBNPA comb./alone, day 5, MIC 1)?
**A.** Its a/A is 0.32 and 0.50.

**Q.** What about the a/A ([1]; DBNPA comb./alone, day 5, MIC 2) of the same compound?
**A.** Its a/A is 0.32.

**Q.** What about the a comb. ([1]; DBNPA combined with stabilized hypochlorite and bromide, ppm active ingredient, day 1, MIC 1) of the same compound?
**A.** Its a comb. is 1.56 ppm and 0.78 ppm.

**Q.** What about the a comb. ([1]; DBNPA combined with stabilized hypochlorite and bromide, ppm active ingredient, day 5, MIC 1) of the same compound?
**A.** Its a comb. is 4.00 ppm and 3.13 ppm.

**Q.** What about the a comb. ([1]; DBNPA combined with stabilized hypochlorite and bromide, ppm active ingredient, day 5, MIC 2) of the same compound?
**A.** The a comb. was 4.00 ppm.

**Q.** What about the A alone ([2]; DBNPA alone, ppm active ingredient, day 1, MBC 1) of the same compound?
**A.** Its A alone is 12.50 ppm.

**Q.** And the a/A ([2]; DBNPA comb./alone, day 1, MBC 1)?
**A.** Its a/A is 0.50.

**Q.** What about the a comb. ([2]; DBNPA combined with stabilized hypochlorite and bromide, ppm active ingredient, day 1, MBC 1) of the same compound?
**A.** Its a comb. is 6.25 ppm.

**Q.** For `CCCCCCCCn1sc(Cl)c(Cl)c1=O` [DCOIT, 4,5-Dichloro-2-n-octyl-4-isothiazolin-3-one], which “A alone (MIC)” value ([1]; Day 1, MIC 1) is on record?
**A.** Its value is 2.50 ppm active ingredient.

**Q.** What about the “A alone (MIC)” value ([1]; Day 1, MIC 2) of the same compound?
**A.** Its value is 2.50 ppm active ingredient.

**Q.** And the “A alone (MIC)” value ([1]; Day 3, MIC 1)?
**A.** Its value is 5.00 ppm active ingredient and 10.00 ppm active ingredient.

**Q.** What about the “A alone (MIC)” value ([1]; Day 3, MIC 2) of the same compound?
**A.** The value was 10.00 ppm active ingredient and 5.00 ppm active ingredient.

**Q.** And the “A alone (MIC)” value ([1]; Day 5, MIC 1)?
**A.** The value was 5.00 ppm active ingredient.

**Q.** And the “A alone (MIC)” value ([1]; Day 5, MIC 2)?
**A.** Its value is 10.00 ppm active ingredient.

**Q.** And the “A alone (MBC)” value ([2]; Day 1, MBC 1)?
**A.** The value was 10.00 ppm active ingredient.

**Q.** And the “A alone (MBC)” value ([2]; Day 1, MBC 2)?
**A.** The value was 10.00 ppm active ingredient.

**Q.** How did the A alone ([1]; glutaraldehyde alone, ppm active ingredient, day 1, MIC 1) turn out when `O=CCCCC=O` [GLUT, Pentane-1,5-dial] was run?
**A.** The A alone was 25.00 ppm.

**Q.** And the A alone ([1]; glutaraldehyde alone, ppm active ingredient, day 1, MIC 2)?
**A.** The A alone was 25.00 ppm.

**Q.** What about the A alone ([1]; glutaraldehyde alone, ppm active ingredient, day 3, MIC 1) of the same compound?
**A.** The A alone was 25.00 ppm.

**Q.** What about the A alone ([1]; glutaraldehyde alone, ppm active ingredient, day 3, MIC 2) of the same compound?
**A.** The A alone was 50.00 ppm.

**Q.** What about the A alone ([1]; glutaraldehyde alone, ppm active ingredient, day 5, MIC 1) of the same compound?
**A.** Its A alone is 25.00 ppm.

**Q.** And the A alone ([1]; glutaraldehyde alone, ppm active ingredient, day 5, MIC 2)?
**A.** The A alone was 50.00 ppm.

**Q.** And the a/A ([1]; glutaraldehyde comb./alone, day 1, MIC 1)?
**A.** Its a/A is 0.50.

**Q.** And the a/A ([1]; glutaraldehyde comb./alone, day 1, MIC 2)?
**A.** Its a/A is 0.50.

**Q.** What about the a/A ([1]; glutaraldehyde comb./alone, day 3, MIC 1) of the same compound?
**A.** Its a/A is 0.50.

**Q.** What about the a/A ([1]; glutaraldehyde comb./alone, day 3, MIC 2) of the same compound?
**A.** Its a/A is 0.50.

**Q.** What about the a/A ([1]; glutaraldehyde comb./alone, day 5, MIC 1) of the same compound?
**A.** The a/A was 0.50.

**Q.** And the a/A ([1]; glutaraldehyde comb./alone, day 5, MIC 2)?
**A.** The a/A was 0.50.

**Q.** And the a comb. ([1]; glutaraldehyde combined with stabilized hypochlorite and bromide, ppm active ingredient, day 1, MIC 1)?
**A.** Its a comb. is 12.50 ppm.

**Q.** And the a comb. ([1]; glutaraldehyde combined with stabilized hypochlorite and bromide, ppm active ingredient, day 1, MIC 2)?
**A.** The a comb. was 12.50 ppm.

**Q.** And the a comb. ([1]; glutaraldehyde combined with stabilized hypochlorite and bromide, ppm active ingredient, day 3, MIC 1)?
**A.** Its a comb. is 12.50 ppm.

**Q.** And the a comb. ([1]; glutaraldehyde combined with stabilized hypochlorite and bromide, ppm active ingredient, day 3, MIC 2)?
**A.** The a comb. was 25.00 ppm.

**Q.** What about the a comb. ([1]; glutaraldehyde combined with stabilized hypochlorite and bromide, ppm active ingredient, day 5, MIC 1) of the same compound?
**A.** Its a comb. is 12.50 ppm.

**Q.** And the a comb. ([1]; glutaraldehyde combined with stabilized hypochlorite and bromide, ppm active ingredient, day 5, MIC 2)?
**A.** The a comb. was 25.00 ppm.

**Q.** What about the A alone ([2]; glutaraldehyde alone, ppm active ingredient, day 1, MBC 1) of the same compound?
**A.** Its A alone is 25.00 ppm.

**Q.** And the A alone ([2]; glutaraldehyde alone, ppm active ingredient, day 1, MBC 2)?
**A.** Its A alone is 25.00 ppm.

**Q.** What about the A alone ([2]; glutaraldehyde alone, ppm active ingredient, day 3, MBC 2) of the same compound?
**A.** The A alone was 50.00 ppm.

**Q.** What about the a/A ([2]; glutaraldehyde comb./alone, day 1, MBC 1) of the same compound?
**A.** Its a/A is 0.50.

**Q.** And the a/A ([2]; glutaraldehyde comb./alone, day 1, MBC 2)?
**A.** Its a/A is 0.50.

**Q.** And the a/A ([2]; glutaraldehyde comb./alone, day 3, MBC 2)?
**A.** The a/A was 0.50.

**Q.** What about the a comb. ([2]; glutaraldehyde combined with stabilized hypochlorite and bromide, ppm active ingredient, day 1, MBC 1) of the same compound?
**A.** Its a comb. is 12.50 ppm.

**Q.** What about the a comb. ([2]; glutaraldehyde combined with stabilized hypochlorite and bromide, ppm active ingredient, day 1, MBC 2) of the same compound?
**A.** The a comb. was 12.50 ppm.

**Q.** And the a comb. ([2]; glutaraldehyde combined with stabilized hypochlorite and bromide, ppm active ingredient, day 3, MBC 2)?
**A.** Its a comb. is 25.00 ppm.

**Q.** Which results are given for “Alkyl*dimethyl benzyl ammonium chloride [ADBAC]”?
**A.** A alone (MIC) ([1]; Day 1, MIC 1): 12.50 ppm active ingredient; A alone (MIC) ([1]; Day 3, MIC 2): 50.00 ppm active ingredient; A alone (MBC) ([2]; Day 3, MBC 1): 50.00 ppm active ingredient; A alone (MBC) ([2]; Day 3, MBC 2): 50.00 ppm active ingredient
